Experimental data reported in ChEMBL document CHEMBL3244329, “Nicotinamide adenine dinucleotide phosphate-decanaldehyde adduct as an inhibitor of beef brain NADP-linked aldehyde reductase” (J Med Chem, 1979).

Molecular target: Aldo-keto reductase family 1 member A1 (Bos taurus, UniProt Q3ZCJ2)
Assay: Inhibition of beef brain NADP-dependent aldehyde reductase using p-nitrobenzaldehyde by competitive inhibition assay

Chain of Aldo-keto reductase family 1 member A1 (Q3ZCJ2 2-325 limits assumed): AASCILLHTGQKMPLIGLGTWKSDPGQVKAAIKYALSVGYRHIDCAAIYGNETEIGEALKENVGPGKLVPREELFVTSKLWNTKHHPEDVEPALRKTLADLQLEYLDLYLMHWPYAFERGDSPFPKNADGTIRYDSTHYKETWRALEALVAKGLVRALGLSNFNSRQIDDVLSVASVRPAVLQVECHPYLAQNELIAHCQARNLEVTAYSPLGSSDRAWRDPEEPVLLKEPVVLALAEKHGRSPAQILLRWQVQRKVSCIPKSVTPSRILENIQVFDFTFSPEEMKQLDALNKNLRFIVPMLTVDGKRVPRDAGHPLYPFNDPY

Ki [µM] | Compound
13 | CCC1C(O)NC(=O)C2=CN([C@@H]3O[C@H](COP(=O)(O)O[C@H]4[C@@H](O)[C@H](n5cnc6c(N)ncnc65)O[C@@H]4COP(=O)(O)OP(=O)(O)O)[C@@H](O)[C@H]3O)C=C[C@H]21 (some centres undefined)
2.3 | CCCCCCCCC1C(O)NC(=O)C2=CN([C@@H]3O[C@H](COP(=O)(O)O[C@H]4[C@@H](O)[C@H](n5cnc6c(N)ncnc65)O[C@@H]4COP(=O)(O)OP(=O)(O)O)[C@@H](O)[C@H]3O)C=C[C@H]21 (some centres undefined)
7 | Nc1ncnc2c1ncn2[C@@H]1O[C@H](COP(=O)(O)OP(=O)(O)O)[C@@H](OP(=O)(O)OC[C@H]2O[C@@H](N3C=C[C@@H]4C(=C3)C(=O)NC(O)C4Cc3ccccc3)[C@H](O)[C@@H]2O)[C@H]1O (some centres undefined)
5.1 | Nc1ncnc2c1ncn2[C@@H]1O[C@H](COP(=O)(O)OP(=O)(O)O)[C@@H](OP(=O)(O)OC[C@H]2O[C@@H](N3C=C[C@@H]4C(=C3)C(=O)NC(O)C4c3ccccc3)[C@H](O)[C@@H]2O)[C@H]1O (some centres undefined)
